Reference: US10703748B2, “Diazanaphthalen-3-yl carboxamides and preparation and use thereof” (Samumed, LLC, priority 2017, dated 2020)

How the values were obtained:
DYRK1A kinase = DYRK1A kinase (Homo sapiens, UniProt Q13627); assay: DYRK1A kinase activity (Ser/Thr 18 peptide Z-lyte FRET assay); assay type: biochemical; details: recombinant DYRK1A, 30 μM ATP, one hour at room temperature;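 note: kinase activity read as coumarin/fluorescein emission ratio after development step, with unphosphorylated and phosphorylated peptide forms setting 0% and 100% controls, values from dose-response curves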
Method: Representative compounds were screened using the assay procedure for DYRK1A kinase activity as described below.
Each compound was dissolved in DMSO as a 10 mM stock and used to prepare compound source plates.
This is a non-radioactive assay using fluorescence resonance energy transfer (FRET) between coumarin and fluorescein to detect kinase activity which is represented as a ratio of coumarin emission/fluorescein emission.
The mixture was allowed to incubate with the representative compounds for one hour at room temperature. All reactions were performed in duplicate. Unphosphorylated (“0% Control”) and phosphorylated (“100% control”) forms of Ser/Thr 18 served as control reactions. Additionally, an 11-point dose-response curve of Staurosporine (1 uM top) was run to serve as a positive compound control.
After incubation, Development Reagent A was diluted in Development Buffer then added to the reaction and allowed to further incubate for one hour at room temperature.
Dose-response curves were generated and inhibitory concentration (IC50) values were calculated using non-linear regression curve fit in the Dotmatics' Studies Software (Bishops Stortford, UK).

GSK3β kinase = GSK3β kinase (Homo sapiens, UniProt P49841); assay: GSK3β kinase activity (Ser/Thr 09 peptide Z-lyte FRET assay); assay type: biochemical; details: recombinant kinase, 46 μM ATP, one hour at room temperature; read-out: EC50
[1] = test system: Tau phosphorylation at Ser396 (pSer396); assay: Tau phosphorylation at Ser396 (pSer396) in SH-SY5Y cells, ELISA / western blot; assay type: cell-based, human; details: Homo sapiens; SH-SY5Y cells, overnight (16-18 h); read-out: pSer396 Tau EC50;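 note: decrease in pSer396 Tau measured in lysates of treated cells by colorimetric ELISA or chemiluminescent western blot, same pSer396 antibody for both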
Method: Two days before treatment, cells were seeded onto 96 well plates at 5×10^4 cells/well.
The above synthesized compounds were screened using the cell assay procedure to assess decrease Tau phosphorylation at Ser396 (pSer396) described below.
Cells were lysed with RIPA buffer complemented with phosphatase and protease inhibitors then lysates were spun down at 12,000 g for 10 min to remove any cellular debris.

[2] = test system: secreted cytokines TNFα, IL-6 and KC-GRO; assay: Secreted cytokines in Lipopolysaccharide-stimulated BV-2 cells (Table 9 does not say which cytokine); assay type: cell-based, mouse; details: Mus musculus, BV-2, 5 h; read-out: EC50
Method: BV-2 cells (mouse microglial cells) were cultured in 1:1 DMEM medium supplemented with 10% FBS, and 1% penicillin/streptomycin.
BV-2 cells are plated at 35,000 cells/well in a volume of 100 μl for at least 4 hours before compounds are added. […] Compounds were added to cells overnight. […] Supernatant is removed and saved for further cytokine detection. The original plates with seeded cells were tested for cytotoxicity by measure of adenosine triphosphate (ATP) release by adding CellTiter-Glo® diluted 1:4 in distilled water (G7573, Promega) and transferring lysed cells to a completely black 96-well plate to be read with the Cytation3. Supernatant was then diluted 1:2 with a diluent from V-PLEX cytokine Kit and directly tested for the secreted cytokines TNFα, IL-6 and KC-GRO using electrochemiluminescence (Meso Scale Discovery). The standard curve for each cytokine was used to convert the electrochemiluminescent signal into pg of protein per mL.

[3] = test system: SW480 colon carcinoma cells; assay: Cell viability assay (CellTiter-Glo); details: Homo sapiens; for EC50: SW480, 96 h; for inhibition at 10 µM: SW480, read-out: percent inhibition at 10 μM
[4] = test system: Wnt-responsive Sp5-Luc reporter in SW480 colon carcinoma cells; assay: Screening assay for Wnt activity (Sp5-Luc reporter gene assay); details: Homo sapiens; for EC50: SW480; for inhibition at 10 µM: SW480, read-out: percent inhibition at 10 μM
IL-6 = IL-6 inhibition in LPS-stimulated human peripheral blood mononuclear cells (HTRF); details: Homo sapiens, PBMC; for EC50: 22 h; for inhibition at 10 µM: read-out: percentage in parentheses after EC50 >10
[5] = test system: α-smooth muscle actin (aSMA) positive LL29 cells; assay: Inhibition of the fibrotic process: αSMA staining in TGF-β1 treated LL29 fibroblasts from IPF patients; details: Homo sapiens, Fibroblast; for EC50: 96 h; for inhibition at 10 µM: read-out: percentage in parentheses after EC50 >10
Method: Each compound was dissolved in DMSO as a 10 mM stock and used to prepare compound source plates. […] LL29 cells were plated at 1,500 cells/well in 70 μL/well F12 medium supplemented with 1% Fetal Bovine Serum. […] Wells treated with TGF-β1 and containing DMSO were used as positive control, and cells with only DMSO were negative control. Cells were incubated at 37° C. and 5% CO2 for 4 days. Following incubation for 4 days, SYTOX green nucleic acid stain (Life Technologies [Thermo Fisher Scientific]) was added to the wells at a final concentration of 1 μM and incubated at room temperature for 30 min. Cells were then fixed using 4% formaldehyde (Electron Microscopy Sciences), washed 3 times with PBS followed by blocking and permeabilization using 3% Bovine Serum Albumin (BSA; Sigma) and 0.3% Triton X-100 (Sigma) in PBS.

Chain of GSK3β kinase (P49841 whole entry): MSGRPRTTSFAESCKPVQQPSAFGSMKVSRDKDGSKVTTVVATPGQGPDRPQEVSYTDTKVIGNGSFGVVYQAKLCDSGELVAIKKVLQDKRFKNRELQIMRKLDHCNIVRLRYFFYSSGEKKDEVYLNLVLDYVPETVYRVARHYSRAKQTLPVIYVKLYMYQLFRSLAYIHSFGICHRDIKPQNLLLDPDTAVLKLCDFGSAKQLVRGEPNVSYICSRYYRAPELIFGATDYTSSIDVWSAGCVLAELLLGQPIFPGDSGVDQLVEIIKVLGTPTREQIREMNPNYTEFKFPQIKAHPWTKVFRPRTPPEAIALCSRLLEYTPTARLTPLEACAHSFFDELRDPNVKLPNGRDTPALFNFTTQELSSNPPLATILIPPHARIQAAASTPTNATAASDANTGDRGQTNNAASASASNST

Compound	EC50 (DYRK1A kinase)	EC50 (GSK3β kinase)	EC50 [1]	EC50 [2]	EC50 [3]	EC50 [4]	EC50 (IL-6)	inhibition at 10 µM [3]	EC50 [5]	inhibition at 10 µM [5]	inhibition at 10 µM (IL-6)	inhibition at 10 µM [4]
Cn1cc(-c2ccc3cnc(NC(=O)C4CCN(S(C)(=O)=O)CC4)cc3n2)cn1 [Compound 71, N-(2-(1-Methyl-1H-pyrazol-4-yl)-1,6-naphthyridin-7-yl)-1-(methylsulfonyl)piperidine-4-carboxamide]	3 nM	18 nM	426 nM	93 nM	> 10000 nM	559 nM	5490 nM	40.7%	420 nM			
Cn1cc(-c2ccc3cnc(NC(=O)CC4CNCCO4)cc3n2)cn1 (centres unmarked) [Compound 86, N-(2-(1-Methyl-1H-pyrazol-4-yl)-1,6-naphthyridin-7-yl)-2-(morpholin-2-yl)acetamide]	12 nM	68 nM	1000 nM	201 nM	3610 nM	1890 nM	1020 nM		1890 nM			
Cn1cncc1-c1ccc2cnc(NC(=O)c3cccc(CN4CCCC4)c3)cc2n1 [Compound 450, N-(2-(1-Methyl-1H-imidazol-5-yl)-1,6-naphthyridin-7-yl)-3-(pyrrolidin-1-ylmethyl)benzamide]	1 nM	350 nM	3760 nM	3000 nM	409 nM	279 nM	3510 nM		517 nM			
Cn1cncc1-c1ccc2cnc(NC(=O)c3ccc4c(c3)CNC4)cc2n1 [Compound 477, N-(2-(1-Methyl-1H-imidazol-5-yl)-1,6-naphthyridin-7-yl)isoindoline-5-carboxamide]	1 nM	84 nM	10000 nM	4800 nM	1690 nM	962 nM	9830 nM		632 nM			
CC(C)Oc1ccc(C(=O)Nc2cc3nc(-c4cnc5n4CCNC5)ccc3cn2)cc1 [Compound 523, 4-Isopropoxy-N-(2-(5,6,7,8-tetrahydroimidazo[1,2-a]pyrazin-3-yl)-1,6-naphthyridin-7-yl)benzamide]	4 nM	362 nM	3940 nM	799 nM	814 nM	530 nM	> 10000 nM		1630 nM		3.7%	
Cc1cn2c(n1)CN(C(=O)Nc1cc3nc(-c4cnc(C)o4)ccc3cn1)CC2 [Compound 585, 2-Methyl-N-(2-(2-methyloxazol-5-yl)-1,6-naphthyridin-7-yl)-5,6-dihydroimidazo[1,2-a]pyrazine-7(8H)-carboxamide]	9 nM	109 nM	374 nM	257 nM	2690 nM	2080 nM	> 10000 nM		2510 nM		9.4%	
O=C(Nc1cc2nc(-c3cncs3)ccc2cn1)[C@H]1CC[C@H](CN2CC(F)C2)CC1 [Compound 613, trans-4-((3-Fluoroazetidin-1-yl)methyl)-N-(2-(thiazol-5-yl)-1,6-naphthyridin-7-yl)cyclohexane-1-carboxamide]	3 nM	219 nM	157 nM	106 nM	3600 nM	8810 nM	1100 nM		650 nM			
Cc1ncc(-c2ccc3cnc(NC(=O)N4CCOCC4)cc3n2)s1 [Compound 634, N-(2-(2-Methylthiazol-5-yl)-1,6-naphthyridin-7-yl)morpholine-4-carboxamide]	29 nM	1150 nM	7900 nM	542 nM	> 10000 nM	8610 nM	> 10000 nM	41.2%	2130 nM		13%	
Cn1cc(-c2ccc3cnc(NC(=O)C4CC4)nc3c2)cn1 [Compound 909, N-(7-(1-Methyl-1H-pyrazol-4-yl)quinazolin-2-yl)cyclopropanecarboxamide]	13 nM	25 nM	372 nM	1900 nM	> 10000 nM	> 10000 nM	4860 nM	45.6%	1380 nM			56.1%
Cn1cc(-c2ccc3cnc(NC(=O)C4CCNCC4)nc3c2)cn1 [Compound 918, N-(7-(1-methyl-1H-pyrazol-4-yl)quinazolin-2-yl)piperidine-4-carboxamide]	62 nM	236 nM	> 10000 nM	> 10000 nM	> 10000 nM	> 10000 nM	> 10000 nM	10.2%	> 10000 nM	31.2%	14.6%	5%

Continued, in another order:

EC50 (DYRK1A kinase)	EC50 (GSK3β kinase)	EC50 [1]	EC50 [2]	EC50 [3]	EC50 [4]	EC50 (IL-6)	Compound	inhibition at 10 µM [3]	EC50 [5]	inhibition at 10 µM [5]	inhibition at 10 µM (IL-6)	inhibition at 10 µM [4]
6 nM	84 nM	1700 nM	66 nM	> 10000 nM	1540 nM	9090 nM	Cn1cc(-c2ccc3cnc(NC(=O)C4CCN(Cc5ncco5)CC4)cc3n2)cn1 [Compound 95, N-(2-(1-Methyl-1H-pyrazol-4-yl)-1,6-naphthyridin-7-yl)-1-(oxazol-2-ylmethyl)piperidine-4-carboxamide]	38.6%	444 nM			
9 nM	180 nM	967 nM	177 nM	> 10000 nM	1310 nM	8600 nM	Cn1cc(-c2ccc3cnc(NC(=O)C4CCN(Cc5ncccn5)CC4)cc3n2)cn1 [Compound 99, N-(2-(1-Methyl-1H-pyrazol-4-yl)-1,6-naphthyridin-7-yl)-1-(pyrimidin-2-ylmethyl)piperidine-4-carboxamide]	37%	4060 nM			
88 nM	62 nM	1100 nM	5400 nM	7790 nM	3650 nM	9400 nM	CC(C(=O)Nc1cc2nc(-c3cnn(C)c3)ccc2cn1)N1CCCCC1 (centres unmarked) [Compound 112, N-(2-(1-Methyl-1H-pyrazol-4-yl)-1,6-naphthyridin-7-yl)-2-(piperidin-1-yl)propanamide]		> 10000 nM	13.8%		
16 nM	70 nM	481 nM	590 nM	3110 nM	2540 nM	3170 nM	CC(C)CN1CCC(CC(=O)Nc2cc3nc(-c4cnn(C)c4)ccc3cn2)C1 (centres unmarked) [Compound 122, 2-(1-Isobutylpyrrolidin-3-yl)-N-(2-(1-methyl-1H-pyrazol-4-yl)-1,6-naphthyridin-7-yl)acetamide]		4020 nM			
23 nM	17 nM	3000 nM	819 nM	7620 nM	596 nM	8940 nM	Cn1cc(-c2ccc3cnc(NC(=O)CCc4ccccc4)cc3n2)cn1 [Compound 194, N-(2-(1-Methyl-1H-pyrazol-4-yl)-1,6-naphthyridin-7-yl)-3-phenylpropanamide]		935 nM			
1 nM	48 nM	562 nM	83 nM	165 nM	107 nM	4250 nM	Cc1ncc(C(=O)Nc2cc3nc(-c4cnc(C)n4C)ccc3cn2)s1 [Compound 447, N-(2-(1,2-Dimethyl-1H-imidazol-5-yl)-1,6-naphthyridin-7-yl)-2-methylthiazole-5-carboxamide]		517 nM			
54 nM	86 nM	487 nM	2200 nM	> 10000 nM	> 10000 nM	> 10000 nM	Cc1ncc(-c2ccc3cnc(NC(=O)[C@H]4C[C@H](N5CCOCC5)C4)cc3n2)o1 [Compound 556, trans-N-(2-(2-Methyloxazol-5-yl)-1,6-naphthyridin-7-yl)-3-morpholinocyclobutane-1-carboxamide]	29.4%	> 10000 nM	27.6%	4.9%	41.3%
38 nM	401 nM	877 nM	504 nM	> 10000 nM	> 10000 nM	7340 nM	Cc1ncc(-c2ccc3cnc(NC(=O)C4CCN(C)CC4)cc3n2)s1 [Compound 640, 1-Methyl-N-(2-(2-methylthiazol-5-yl)-1,6-naphthyridin-7-yl)piperidine-4-carboxamide]	40.4%	671 nM			42.9%
8 nM	243 nM	807 nM	5100 nM	> 10000 nM	> 10000 nM	> 10000 nM	O=C(Nc1cc2nc(-c3cccnc3)ccc2cn1)C1CC1 [Compound 764, N-(2-(Pyridin-3-yl)-1,6-naphthyridin-7-yl)cyclopropanecarboxamide]	24.7%	> 10000 nM	5.8%	4.3%	27.5%
